{"source": "patent US20220031632A1", "about": "“NANOPARTICLE COMPOSITIONS AND USES THEREOF” (OP-T LLC, priority 2020, published 2022)", "key": {"[1]": {"system": "CD3+ T cells and antigen presenting cells (APC)", "experiment": "Fluorescent peptide binding to PBMCs from MS patients by flow cytometry", "assay_type": "cell-based, human", "conditions": "fluorescenated peptides", "procedure": "In some embodiments, the size (length—i.e. number of amino acids) of the peptide may matter for disease prevention capacity. […] In some embodiments, use of different length peptides may be advantageous in treatment of different diseases as each disease may be driven primarily by one cell type or another.\nPeripheral blood mononuclear cells from MS patients were stained then gated on CD3^+ for T cells or on CD3^− for antigen presenting cells (APC) were analyzed for peptide binding levels. Different cells bind different peptides with different intensities as determined by flow cytometry. There were 24 subjects in each test."}, "[2]": {"system": "T1D dogs", "experiment": "Longstanding T1D domestic dogs treated with i.v. infusions of dog 15-mer peptide", "assay_type": "in vivo", "conditions": "before first infusion vs several weeks after initiation", "procedure": "Four longstanding T1D domestic dogs were treated with i.v. infusions of dog 15-mer peptide, twice in the first week then weekly thereafter. Levels of fructosamine were measured before the first infusion and several weeks after initiation of treatment."}, "[3]": {"system": "C57BL/6 mice", "experiment": "EAE mouse model, daily clinical score", "assay_type": "in vivo", "description": "EAE was then induced and the mice started to show symptoms on day 10, which is standard for these mice under these conditions. This is further depicted in FIG. 11. On days 13, 20, and 27, the KGYY6 group of mice receive a boost of peptide, while the other group again received PBS via IV injection. […] By day 13, there was a statistically significant difference that lasted throughout the experiment. In FIG. 11—*—asterisks—denote p-value: *—one asterisk is <0.05; **—two asterisks is <0.01; ***—three asterisks is <0.001; and ****-four asterisks is <0.0001. This is a two-way ANOVA with Sidak's multiple comparisons test. Arrows in above lines in FIG. 11 represent days −3, −1, 13, 20, and 27, which correspond to days on which the mice received the KGYY6. Mice were disease scored daily in this study as described in more detail below. […]\nAll mice were monitored daily for disease and scored in the following manner: 0—no abnormalities; 0.5—clutching hind limbs; 1—limp tail or weak hind limbs and/or wobbly gait; 1.5—limp tail and clutching hind limbs; 2—limp tail and weak hind limbs and/or wobbly gait wherein the mouse supports itself and propels itself using hind limbs; 2.5—limp tail and weak hind limbs and/or wobbly gait wherein the mouse cannot support and propel itself using hind limbs, but the paws are moving. […]"}, "[4]": {"system": "ApoE−/− mice", "experiment": "Glucose tolerance testing in ApoE-/- mice", "assay_type": "in vivo, mouse", "conditions": "n=14"}, "[5]": {"system": "NOD mice", "experiment": "Diabetes prevention in NOD mice treated with peptides", "assay_type": "in vivo, mouse", "conditions": "for diabetes onset (blood glucose >250 mg/dl): NOD mice treated with different sizes of peptides, n=10", "procedure": "(a) The amino acid sequence of mouse CD154 is depicted, with amino acids known to interact with CD40 shown in bold. A 15 amino acid sequence is highlighted in grey and aligned with the same motif in human CD154. A previously studied peptide is highlighted. (b) NOD mice were treated with different sizes of peptides, as indicated (n=10 in all groups). Mice were monitored for diabetes onset (blood glucose >250 mg/dl). Differences were significant by two-way ANOVA; p<0.0001.\nFIG. 3 includes sub-parts FIGS. 3A and 3B. […] The percent of subjects that developed diabetes in the KGYY15 subjects was much lower, as compared with the RGD peptide and the scrambled peptide. KGYY15 diabetes prevention is sequence dependent, and several amino acid positions are critical for its function. (a) KGYY15-treated mice were compared with mice treated with a scrambled peptide or a peptide targeting the RGD region (sequences indicated above the graph). (b) KGYY15-treated mice were compared with mice treated with a 15-mer peptide series in which single amino acids, as indicated, were substituted for glycine. L137; Y144; T146; M147; N150; n=10 in all groups shown in (a) and (b), except for L137, where n=9. Differences were significant by two-way ANOVA; p<0.0001"}, "[6]": {"system": "T cells from KGYY15 treated mice", "experiment": "T cell proliferation (CFSE dilution) with autologous APC loaded with KGYY15", "assay_type": "cell-based, mouse", "conditions": "APC +/- KGYY15, 5 days, n=5", "procedure": "(§1) NOD mice were injected weekly for 7 weeks with 1 mg/kg of KGYY15. In FIG. 4A, serum was collected from injected or control mice and used, followed by anti-mouse-IgG secondary antibody, in western blots for detection of KGYY15 peptide or soluble CD154 (sCD154; KGYY15 and sCD154 sizes are indicated with arrows). […] As a standard, KGYY15-biotin was run and detected with streptavidin-HRP. Experiment was done twice, pooling serum from 2 and 3 mice in each experiment, respectively. In FIGS. 4B and 4C, sorted splenic APC from KGYY15 treated mice were loaded with KGYY15 or not. T cells from KGYY15 treated mice were CFSE labelled then exposed to the autologous APC (+/− KGYY15) and incubated for 5 days. […] Representative histogram of CFSE dilution: Black line—T cells alone; Grey tinted—T cells+APC alone; Dotted line—T cells+APC loaded with KGYY15. Graph depicts cumulative data (n=5 in each group)."}, "[7]": {"system": "NOD mice", "experiment": "Immunogenicity: serum antibodies to KGYY15 or sCD154 by western blot", "assay_type": "in vivo, mouse", "conditions": "1 mg/kg weekly for 7 weeks", "procedure": "as §1"}, "[8]": {"system": "NOD mice", "experiment": "Reversal of overt hyperglycemia in new onset diabetic NOD mice, daily KGYY15", "assay_type": "in vivo, mouse", "procedure": "FIG. 2, which includes FIG. 2A-2D, is based on a study of the use of KGYY15 to treat NOD mice. […] Immediately after diabetes onset (blood glucose >250 mg/dl; n=9), mice were treated daily with KGYY15 and blood glucose was monitored. […] FIG. 2C is a graph showing Islet insulitis scores in reversed and non-reversed mice: 0, no infiltration (black); 1, 25% infiltration (striped); 2, 50% infiltration (dark grey); 3, 75% infiltration (light grey); 4, 100% infiltration (white). FIG. 2D is a graph showing Islet insulin granulation scores: 0, less than 25% granulation; 1, 25-50% granulation; 2, 50-75% granulation; […], 75-100% granulated. Data is represented as the mean±SEM; ****p<0.0001 by two-tailed unpaired t test."}}, "note": "Entries after “also recorded” stand apart in the source; their conditions may differ. Where no end group is shown, it is not given here."}
{"substance": "6-mer: fluorescenated version of the 6-mer peptide used to stain PBMCs from MS patients (AKKGYY; also: fluorescent label)", "values": [{"measurement": "binding to T cells compared with APCs", "setting": "[1]", "result": "stained both T cells and APCs equally well"}]}
{"substance": "VLRWA PKGYY TISSN (chain 1 VLRWAPKGYYTISSN; chain 2 VLRWAPKGYYTISSN) [Dog 15-mer peptide]", "values": [{"measurement": "fructosamine levels", "setting": "[2]", "result": "significantly decreases fructosamine levels"}]}
{"substance": "AKKGYY [KGYY6]", "values": [{"measurement": "severity of EAE (disease course, clinical score)", "setting": "[3]; i.v. pretreatment before EAE induction plus boosts, vs PBS control", "result": "significantly less severe; also recorded: ameliorates EAE; also recorded: significantly reduced the severity of the EAE symptoms"}, {"measurement": "severity of EAE", "setting": "[3]; no pretreatment, treatment delayed until visible disease symptoms", "result": "may significantly reduce the severity of EAE"}, {"measurement": "glucose tolerance", "setting": "[4]", "result": "statistically significant improvement"}, {"measurement": "insulin sensitivity", "setting": "[4]", "result": "statistically significant improvement; also recorded: may improve"}]}
{"substance": "VLQWAKKGYYTMKSN (VLQWAKKGYYTMKSK) [KGYY15]", "values": [{"measurement": "diabetes onset (blood glucose >250 mg/dl)", "setting": "[5]", "result": "prevent the onset of T1D"}, {"measurement": "diabetes onset (blood glucose >250 mg/dl)", "setting": "[5]; listed as 15-mer CD154-derived peptide", "result": "prevents diabetes"}, {"measurement": "percent of subjects that developed diabetes", "setting": "[5]; NOD mice, 35 weeks, compared with RGD peptide and scrambled peptide", "result": "much lower"}, {"measurement": "T cell proliferation by CFSE dilution", "setting": "[6]", "result": "no proliferation was detected"}, {"measurement": "antibody production to the peptide", "setting": "[7]; serum western blot", "result": "no antibodies to the peptide had been generated; also recorded: does not elicit antibody production"}, {"measurement": "immunogenicity", "setting": "[7]; NOD mice, 1 mg/kg", "result": "does not appear to be immunogenic"}, {"measurement": "reversal of overt hyperglycemia", "setting": "[8]; NOD mice treated daily after diabetes onset, n=9", "result": "reverses overt hyperglycemia"}, {"measurement": "mice with reversed hyperglycemia", "setting": "[8]; new onset diabetic mice", "result": "approximately 60%"}]}
{"substance": "15-mer: fluorescenated version of the 15-mer peptide used to stain PBMCs from MS patients (VLRWAPKGYYTISSN; also: fluorescent label)", "values": [{"measurement": "binding to T cells compared with APCs", "setting": "[1]", "result": "bound better to T cells than APCs"}]}
